Assay results: PubChem BioAssay (NCI)
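1) Cells in 96-well plates. 2) Compound, 48 h, 5 concentrations. 3) Linear interpolation between surrounding doses. 4) Unreached endpoint = highest concentration. GI50 is the concentration that inhibits growth by half. TGI marks complete inhibition of growth.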

Experiments:
Experiment in all cases: NCI anticancer screen, dose series, 48 h
MDA-N = system: MDA-N
MDA-MB-231 breast = system: MDA-MB-231 breast
UO-31 renal = system: UO-31 renal
UACC-62 melanoma = system: UACC-62 melanoma
RPMI-8226 leukemia = system: RPMI-8226 leukemia
UACC-257 melanoma = system: UACC-257 melanoma
A549 NSCLC = system: A549 NSCLC
SF-268 CNS = system: SF-268 CNS
COLO 205 colon = system: COLO 205 colon
LOX IMVI melanoma = system: LOX IMVI melanoma

Row | SMILES | TGI (MDA-N) [µM] | TGI (MDA-MB-231 breast) [µM] | TGI (UO-31 renal) [µM] | TGI (UACC-62 melanoma) [µM] | TGI (RPMI-8226 leukemia) [µM] | TGI (UACC-257 melanoma) [µM] | TGI (A549 NSCLC) [µM] | TGI (SF-268 CNS) [µM] | TGI (COLO 205 colon) [µM] | TGI (LOX IMVI melanoma) [µM] | GI50 (UACC-62 melanoma) [µM]
1 | CCC1([N+](=O)[O-])CN(N=O)C1 | > 100 | > 100 | > 100 | > 100 | > 100 | > 100 | > 100 | > 100 | > 100 | > 100 | 
2 | CSc1nc(Cl)c2c(n1)Sc1nc3ccccc3n1C2O (stereo unspecified) | > 100 | > 100 | 24.3 | > 100 | 19.5 | > 100 | > 96.4 | 55 | > 21.6 | 3.9 | 
3 | CSc1ncc2c(n1)-c1ccccc1OC2NC1CC1 (stereo unspecified) | > 100 | > 100 | > 100 | > 100 | 96.9 | > 100 | > 100 | > 100 | > 100 | > 100 | 
4 | Clc1ccc(/C(=C/c2ccccc2)Cn2ccnc2)cc1 | 46.6 | > 100 | > 100 | > 100 | 73.6 | > 100 | > 100 | > 100 | 38.5 | 91.1 | 
5 | CSc1nc(=O)c2nc(-c3cccs3)c(-c3cccs3)nc2n1C | > 100 | > 100 | > 100 | > 100 | > 100 | > 100 | > 100 | > 100 | > 100 | > 100 | 
6 | O=C1CC[C@@]23CC(=O)O[C@@H]2CCCC3C1 (stereo partly specified) | > 100 | > 100 | > 100 | > 100 | > 100 | > 100 | > 100 | > 100 | > 100 | > 100 | 
7 | CN(C)/N=N/c1nc2c(c(=O)n(C)c(=O)n2C)n1CC1CO1 (stereo unspecified) | 46.7 | 68.1 | 31.3 | 24.8 | 93.1 | 43.9 | 69.4 | 33.6 | 27.3 | 23.7 | 
8 | CC1=NN2C(=N)/C(=C/c3ccc(F)cc3)C(=O)N=C2S1 | > 100 | > 100 | > 100 | > 100 | > 100 | > 100 | > 100 | > 100 | > 100 | > 100 | 
9 | CC(C)=CCc1c(O)cc2oc(-c3ccc(O)cc3O)cc(=O)c2c1O | 72.3 | 67.2 | 93.9 | 34.6 | 41.4 | > 83.8 | > 100 | > 100 | 62.6 | 59.1 | 
10 | CSc1ccc(/C=C2\N=C(c3ccccc3)N(c3nc4cc(Cl)c(F)cc4s3)C2=O)cc1 | > 100 | > 100 | > 100 | > 100 | > 100 | > 100 | > 100 | > 100 | > 100 | 55.6 | 
11 | CS(=O)(=O)Nc1ccc2ccccc2c1 | > 100 | > 100 | > 100 | > 100 | > 100 | > 100 | > 100 | > 100 | > 100 | > 100 | 
12 | CC1(C)C=C(/C=C2/N(S(=O)(=O)C(F)(F)F)C(/C=C3/N(S(=O)(=O)C(F)(F)F)C(C)(C#N)CC3(C)C)=CC2(C)C)N=C1/C=C1/CC(C)(C)C(=O)N1 (stereo unspecified) | > 100 | > 100 | > 100 | 69.1 | 23.4 | > 100 | > 100 | 36 | 39.2 | 72.9 | 
13 | NC(=O)c1ccc[n+](C2=C([O-])c3ccccc3C(=O)/C2=N\S(=O)(=O)c2ccccc2)c1 | 31 | 34.5 | 27.9 | 32.1 | > 100 | 27.7 | 37.7 | 31.3 | 30.2 | 29.5 | 
14 | CC/C=N\N1C(N)=C(C#N)C(C#N)(C#N)C1CC (stereo unspecified) | > 100 | > 100 | > 100 | > 100 | > 100 | > 100 | > 100 | > 100 | > 100 | > 100 | 
15 | COc1ccc(-c2cc3cc(Cl)cc(Cl)c3oc2=O)cc1OC | > 100 | > 100 | > 100 | > 100 | > 100 | > 100 | > 100 | > 100 | > 100 | > 100 | 
16 | C=C(C)[C@H]1CC23C(=O)[C@@](C)(C[C@H]2C1(C)C)C(=O)C(C(=O)C(C)C)=C3O | 35.7 | 32.2 | 39.2 | 29.8 | 27.9 | 62.3 | 57.9 | 50.4 | 23.1 | 38.9 | 
17 | C=C1[C@@H]2CCC3[C@]4(C)C(CC[C@@]5(C)C(=O)O[C@H](O)[C@@H]45)[C@H](O)[C@]3(C2)[C@H]1OC1OC(CO)C(O)C(O)C1O (stereo partly specified) | > 50 | > 50 | > 50 | > 50 | > 50 | > 50 | > 50 | > 50 | > 50 | > 50 | 
18 | O=C([C@H](O)[C@@H](O)c1cccc(Cl)c1)C12CC3CC(CC(C3)C1)C2 | 5.92 | 5.44 | 3.83 | 3.32 | > 22.7 | 4.8 | 5.25 | 4.04 | 4.23 | 2.65 | 

Row | SMILES | TGI (MDA-N) [µM] | TGI (MDA-MB-231 breast) [µM] | TGI (UO-31 renal) [µM] | TGI (UACC-62 melanoma) [µM] | TGI (RPMI-8226 leukemia) [µM] | TGI (UACC-257 melanoma) [µM] | TGI (A549 NSCLC) [µM] | TGI (SF-268 CNS) [µM] | TGI (COLO 205 colon) [µM] | TGI (LOX IMVI melanoma) [µM] | GI50 (UACC-62 melanoma) [µM]
19 | COC1(CC[C@H](C)COC2OC(CO)C(O)C(O)C2O)O[C@H]2C[C@H]3[C@@H]4CC=C5C[C@@H](OC6OC(CO)C(OC7OC(C)C(O)C(O)C7O)C(O)C6OC6OC(C)C(O)C(O)C6O)CC[C@]5(C)[C@H]4CC[C@]3(C)[C@H]2[C@@H]1C (stereo partly specified) | 9.57 | 21.1 | 6.79 | 21.6 | 5.93 | 28.7 | 4.28 | 10.3 | 64 | 3.6 | 6.95
20 | O=C1CSC(c2c[nH]c3ccccc23)N1c1ccc(Cl)cc1Cl (stereo unspecified) | > 100 | > 100 | > 100 | > 100 | > 100 | > 100 | > 100 | > 100 | > 100 | > 100 | 
21 | Cc1c(C(=O)NNc2ccccc2)n2c(=S)[nH]nc2c2ccccc12 | > 100 | > 100 | > 100 | > 100 | > 100 | > 100 | > 100 | > 100 | > 100 | > 100 | 
22 | O=C1C=CC(=O)c2c(O)c(N3CCC[C@@H]3CO)c(Cl)c(O)c21 | 3.15 | 4.03 | 3.49 | 2.96 | 1.69 | 3.28 | 4.19 | 1.74 | 2.88 | 3.16 | 
23 | C[C@H]1[C@H](C)CC[C@]2(C(=O)OC3OC(CO)C(O)C(O)C3O)CC[C@]3(C)C(=CC[C@@H]4[C@@]5(C)C[C@@H](O)[C@@H]6OC(=O)c7cc(O)c(O)c(O)c7-c7c(cc(O)c(O)c7O)C(=O)OC[C@@]6(CO)[C@@H]5CC[C@]43C)[C@H]12 (stereo partly specified) | 51.4 | 37 | > 100 | > 100 | > 100 | > 100 | > 100 | > 100 | > 100 | 35.9 | 
24 | CC1=C(C(=O)OCCO[N+](=O)[O-])C(c2ccccc2[N+](=O)[O-])C(C(=O)OC(C)C)=C(C)N1 (stereo unspecified) | 31.1 | 29 | 26.2 | 28.6 | > 100 | 28.7 | 41.9 | 47.1 | 29.7 | 32.3 | 
25 | CN1c2ccccc2C2=C(c3ccccc3)CC[C@@H](C(=O)N3C4CC5CC[C@@]4(CS3(=O)=O)C5(C)C)[C@@H]21 (stereo partly specified) | > 100 | > 100 | > 100 | > 100 | > 100 | > 100 | > 100 | > 100 | > 100 | > 100 | 
26 | Cc1cc(S(=O)(=O)N=C2Nc3cccc4cccc(c34)N2)c(S)cc1Cl | > 100 | > 100 | > 100 | > 100 | > 100 | > 100 | > 100 | > 100 | > 100 | > 100 | 
27 | CC1=C(C)SC(=C2Sc3c(n(C)c(=O)n(C)c3=O)S2)S1 | > 100 | 75.3 | > 100 | > 100 | > 100 | > 100 | > 100 | > 100 | > 100 | > 100 | 
28 | Cc1cc(-c2cc(C(C)(C)C)c(O)c(C(C)(C)C)c2)c(C)cc1-c1cc(C(C)(C)C)c(O)c(C(C)(C)C)c1 | > 100 | > 100 | > 100 | > 100 | > 100 | > 100 | > 100 | > 100 | > 100 | > 100 | 
29 | CC[C@H](NC(=O)OC(C)(C)C)C(=O)NCP(=O)(OCc1ccc([N+](=O)[O-])cc1)OCc1ccc([N+](=O)[O-])cc1 | 86.1 | > 100 | 80.2 | 51.9 | > 100 | 26.9 | > 100 | > 100 | 30 | > 100 | 
30 | CCOC(=O)C(NC(=O)c1cccc(Cl)c1)(Nc1cccc(C)c1)C(F)(F)F (stereo unspecified) | 38.8 | 41.6 | 32.7 | 28.5 | > 100 | 71.5 | > 100 | 58.9 | 36.2 | 30.7 | 
31 | N#C/C(C(=O)NCc1ccccc1)=C(/N)N1CCCC1 | > 100 | > 100 | > 100 | > 100 | > 100 | > 100 | > 100 | > 100 | > 100 | > 100 | 
32 | CCc1nc2c(c(N(C)C)c1C(=O)OC)CCc1ccccc1-2 | 81.5 | 87.8 | > 100 | 40.4 | 46.6 | 68.9 | > 100 | > 100 | 41.8 | > 100 | 
33 | CCC1(CC)C(=O)N(C(=O)c2cc(OC)c(OC)c(OC)c2)N(C(=O)c2cc(OC)c(OC)c(OC)c2)C1=O | > 50 | > 50 | > 50 | > 50 | > 50 | > 50 | > 50 | > 50 | > 50 | > 50 | 
34 | C[As+](C)(c1ccc(Br)c([N+](=O)[O-])c1)c1ccc(Br)c([N+](=O)[O-])c1.O=[N+]([O-])O | > 100 | > 100 | > 100 | > 100 | > 100 | > 100 | > 100 | > 100 | > 100 | > 100 | 
35 | NCCCCNCCCN1CCOC1=O | > 100 | > 100 | > 100 | > 100 | > 100 | > 100 | > 100 | > 100 | > 100 | > 100 | 
